Like-named read-outs stand apart in the source and are kept apart here.
How the values were obtained:
[1] = Metabolic stability in liver microsomes; assay type: in vitro ADME, human
Procedure: (§1) Following this, the metabolic stability of 9 was determined against mouse, rat, and human liver microsomes. […] Within this assay the stability of the intact parent compound is monitored with respect to time, during incubation at 37 °C in the presence and absence of the co-factor NADPH – required for cytochrome p450 activity.
(§2) Metabolic Stability in Rat, Mouse and Human Liver Microsomes:
The metabolic stability of compounds at a concentration of 1 µM, in rat, mouse and human liver microsomes (BD Gentest, Franklin Lakes NJ) was measured following incubation with hepatic microsomes (0.5 mg of protein / mL) in the presence and absence of cofactor (NADPH) at 37 °C. Aliquots of each incubation were removed at 0.5, 5, 15, 30 and 60 minutes. […]
Samples were analysed using a Shimadzu Shimadzu Nexera LC Binary Gradient LC-30AD (Shimadzu Inc, Kyoto), coupled to a Sciex 5500 mass spectrometer (AB Inc., Illinois) for rat and mouse microsomes and a Sciex 6500+ for human microsomes. […]
The bi-directional permeability in Caco-2 cell lines was determined by seeding cells onto an HTS Transwell plate. […] To assess monolayer integrity the transepithelial electrical resistance (TEER) across the monolayer was measured using Millicell Epithelial volt-ohm meter prior to assay and Lucifer yellow (LY) fluorescence measurement post-assay. […]

[2] = Metabolic stability in liver microsomes; assay type: in vitro ADME, mouse
Procedure: as §1, §2
The metabolic stability of compounds at a concentration of 1 µM, in rat, mouse and human liver microsomes (BD Gentest, Franklin Lakes NJ) was measured following incubation with […]
(NADPH) at 37 °C. Aliquots of each incubation were removed at 0.5, 5, 15, 30 and 60 minutes. The reaction was stopped by the addition of cold acetonitrile containing analytical […]
Samples were then centrifuged at 3,220 g for 40 minutes. The supernatant was aliquoted and added to ultra-pure H2O in a 1:1 ratio in preparation for LC-MS/MS analysis.
Incubations were conducted in duplicate; control incubations (substituting PBS for NADPH) were conducted simultaneously.
Samples were analysed using a Shimadzu Shimadzu Nexera LC Binary Gradient LC-30AD (Shimadzu Inc, Kyoto), coupled to a Sciex 5500 mass spectrometer (AB Inc., Illinois) for rat and mouse microsomes and a Sciex 6500+ for human microsomes. Separation achieved using an XSelect HSS T3 column (2.5µm, 50 x 2.1 mm) (Waters Ltd., Wilmslow) at a temperature of 40°C and a binary mobile phase gradient at a flow rate of 0.7 mL/min. Initial […]
(0.1% formic acid in acetonitrile).
0.5 minutes and then immediately returned to initial conditions. Sample analysis was by electrospray ionisation combined with multiple reaction monitoring in positive ion mode.
The ionspray voltage was 5500V.
Bi-directional Permeability in Caco-2 Cell Line: […]

[3] = design: method as in PMID 29633393; details: DMSO-d6 1% DCM, 112 mM, 298 K; proportion NMR silent; cited from earlier work

Row | Compound | microsomal CLint at 1 µM ([1]; human microsomes) | half-life at 1 µM ([1]; human, 1 µM, 0.5 mg protein/mL, read-out: In vitro t1/2) | microsomal CLint at 1 µM ([2]; liver microsomes, mouse microsomes) | Hepatic Extraction Ratio (ER) ([2]; mouse) | Predicted Hepatic CLH ([2]; mouse) | In vitro t1/2 ([2]; mouse, 1 µM, 0.5 mg protein/mL) | Remaining percentage (%) 0.5 min ([2]; mouse, +Cofactors) | Remaining percentage (%) 5 min ([2]; mouse, +Cofactors) | Remaining percentage (%) 15 min ([2]; mouse, +Cofactors) | Remaining percentage (%) 30 min ([2]; mouse, +Cofactors) | Remaining percentage (%) 60 min ([2]; mouse, +Cofactors) | Remaining percentage (%) 0.5 min ([2]; mouse, -Cofactors) | Remaining percentage (%) 60 min ([2]; mouse, -Cofactors) | half-life at 1 µM ([2]; mouse, liver microsomes, mouse, 1 µM, 0.5 mg protein/mL, read-out: In vitro t1/2) | CLint scaled at 1 µM ([2]; mouse, liver microsomes, read-out: Scale-up CLint) | Q NMR (%) SSA anion [3] | Q NMR (%) SSA cation [3]
1 | O=C(Nc1ccc(C(F)(F)F)cc1)N[C@H](Cc1ccccc1)C(=O)O [SSA 9] | < 7.5 µL/min/mg | > 3.08 h | < 7.5 µL/min/mg | < 0.26 | < 23.07 mL/min/kg | > 3.0797 h | 100.00% | 101.43% | 97.80% | 99.51% | 99.55% | 100.00% | 101.52% | > 3.08 h | < 31 mL/min/kg |  | 
2 | O=C(O)CNC(=O)Nc1ccc(C(F)(F)F)cc1 [SSA 1] |  |  |  |  |  |  |  |  |  |  |  |  |  |  |  | 0 (ref. [30]) % | 0 (ref. [30]) %

Source: PMC12973313 (Chemical Science, 2026)
